Data reported in patent US4935419A, “Novel 1-piperazinecarboxamide derivatives” (priority 1983, dated 1990).
Structures can show the parent of a compound that is named as a salt. Where two headings read alike, the source gives them in different places.

Assays:
[1] = tested on: male NMRI mice (isolation induced aggressive behaviour); experiment: Isolation induced aggressive behaviour test; format: in vivo; conditions: Mus musculus, sc, read-out: ED50, isolation induced aggressive behaviour test
Text: Test 1: Isolation induced aggressive behaviour test
Male mice subjected to prolonged isolation develop aggressive behaviour against each other when paired (Yen, C. Y. et al., Arch. Int. Pharmacodyn. 123, 179, (1959): Valzelli, L., Adv. Pharmacol. 5, 79 (1967)). […] The clinical correlation of this test indicates tranquillizing and anxiolytic activities as well as antiaggressive properties as such (Duncan, R. L. et al., J Med. Chem. 13, 1 (1970)).
This type of aggression is interesting because it is known that this kind of emotional behaviour might be located in limbic structures in the brain (MacLean, P.D., Psychosom. Med. 11, 338 (1949)).
Every week male NMRI mice, weighing 20-22 g, were isolated in Makrolon cages for three weeks with diet and water ad libitum. A piece of cardboard was placed between the cages to prevent visual contact.
To test aggressiveness the mice were paired in a neutral area, a beaker (14 cm high and diameter 14 cm). A pair is considered aggressive if both the animals show clear signs of fighting within 5 minutes. This fighting is characterized by biting and vocalization. […] Animals showing no aggression are discarded. […] The test substance is administered s.c. (0.2-0.4 ml/20 g). The mice are paired 0.5 hour after the injection for trials of 5 minutes duration.
The ED50 -value (mg/kg) reported is the dose inhibiting aggressive behaviour among 50 per cent of the pairs 0.5 hour after drug administration.

[2] = tested on: female NMRI mice (writhing behaviour); experiment: Writhing test (acetic acid); format: in vivo; conditions: Mus musculus, sc, 20 minutes before acetic acid (0.5%, 15 ml/kg i.p.), dose blocking writhing in 50% of the animals
Method: The writhing test is a frequently used test of analgetic properties (Witkin, L. B. et al., J. Pharmacol. Exp. Ther. 133, 400 (1961)). If acetic acid (0.5%, 15 ml/kg) is injected intraperitoneally in mice (NMRI) they will without exception develop a writhing behaviour characterized by stretching their hind legs. The drugs to be tested were administered subcutaneously to 6 female mice at each dose 20 minutes before the injection of the acetic acid. After 10 minutes the behaviour of the mice was studied in 5 minutes. The ED50 -value is the dose blocking the writhing behaviour in 50% of the animals during the 5 minutes study period. [drawing 12]

[3] = tested on: female rats (conditioned avoidance response); experiment: Conditioned avoidance response (CAR); format: in vivo; conditions: Rattus norvegicus, sc, 1.5 h, read-out: ED50, conditioned avoidance response
Method: Test 2: Conditioned avoidance response (CAR)
The effect of the test compounds on CAR was evaluated in a shuttle box, manufactured by Ugo Basile, Italy. The female rats, weighing 150 g, were trained to avoid an electric shock (unconditioned stimulus--US) by escaping from one compartment to the other when the light from a 15W lamp is switched on (conditioned stimulus--CS). When they responded to the CS, a conditioned response (CR) was considered to have been elicited. Rats showing a stable CR of more than 80% after a three weeks' training program were used in the experiments. Groups of six rats were subcutaneously administered with various doses of the test compounds. 11/2 hours after the administration each rat was placed in the experimental box and the effect on CR was evaluated. ED50 -values refer to the dose inhibiting CR in 50% of the animals. The mechanisms regulating conditioned responses are very complex. Both catecholaminergic and hormonal factors are of importance.

[4] = tested on: male NMRI mice (isolation induced aggressive behaviour); conditions: result in words; clinically used drugs; cited from earlier work
[5] = mice, dose inhibiting aggressive behaviour among 50 per cent of the pairs 0.5 hour after administration
[6] = s.c., rats, dose inhibiting CR in 50% of the animals, 1 1/2 hours after administration

CCNC(=O)N1CCN(CCCC(=O)c2ccc(F)cc2)CC1 [1:3, 4-.vertline.4-(p-fluorophenyl)-4-oxobutyl.vertline.-N-ethyl-1-piperazinecarboxamide hydrochloride]
ED50 [1, 5]: 1.7 mg/kg
ED50 [2]: 1.9 mg/kg
ED50 [3, 6]: 12 mg/kg

CCNC(=O)N1CCN(CCCCc2ccc(F)cc2)CC1 [1:15, 4-.vertline.4-(p-fluorophenyl)butyl.vertline.-N-ethyl-1-piperazinecarboxamide hydrochloride]
ED50 [1, 5]: 3.5 mg/kg
ED50 [2]: 3.7 mg/kg
ED50 [3, 6]: 7.9 mg/kg

CN(C)CCC=C1c2ccccc2CCc2ccccc21 [Amitriptyline]
ED50 [1, 5]: 5 mg/kg

CN(C)CCCN1c2ccccc2Sc2ccc(Cl)cc21 [Chlorpromazine]
ED50 ([1]; 0.5 h): 1.4 mg/kg
ED50 [3]: 3.5 mg/kg

CN1C(=O)CN=C(c2ccccc2)c2cc(Cl)ccc21 [Diazepam]
activity on isolation induced aggressive behaviour, known drugs [4]: active on this kind of aggressive behaviour

CSc1ccc2c(c1)N(CCC1CCCCN1C)c1ccccc1S2 (stereo not drawn) [Thioridazine]
ED50 [1, 5]: 5 mg/kg
ED50 [3, 6]: 41 mg/kg
